Measured values reported in ChEMBL document CHEMBL5131466, “Discovery and development of labdane-oxindole hybrids as small-molecule inhibitors against chikungunya virus infection” (Eur J Med Chem, 2022).

Columns and labels:
[1] = Cytotoxicity against human HeLa CCL2 cells assessed as reduction in cell viability measured after 24 hrs by Alamar blue assay; type: functional
Chikungunya virus [2] = test: Antiviral activity against CHIKV 122508 infected in […] BHK-21 cells assessed as reduction in viral titer at MOI of 1 measured after 24 hpi by viral plaque assay; type: functional, organism-based; settings: Chikungunya virus, 122508, BHK-21
[3] = Selectivity index, ratio of CC50 for cytotoxicity against human HeLa CCL2 cells to EC50 for antiviral activity against CHIKV 122508 infected in human HeLa CCL2 cells; type: toxicity, cell-based; settings: read-out: Ratio CC50/EC50
Chikungunya virus [4] = test: Antiviral activity against CHIKV 122508 infected in human HeLa CCL2 cells assessed as inhibition of viral replication at MOI of 1 at 10 uM incubated for 24 hpi by viral plaque assay; type: functional; set-up: unit not given here; settings: time 24 hrs

## C=C1CC[C@@H]2[C@](C)(CO)[C@H](O)CC[C@@]2(C)[C@@H]1C/C=C1/C(=O)N(C(C)=O)c2ccccc21
[1]
  CC50: > 100 µM

## C=C1CC[C@H]2C(C)(C)CCC[C@]2(C)[C@H]1C/C=C1\C(=O)Nc2cc(Cl)ccc21
[1]
  CC50: 15.6 µM

## C=C1CC[C@H]2C(C)(C)CCC[C@]2(C)[C@H]1C/C=C1\C(=O)Nc2cccc(C)c21
Chikungunya virus [2]
  EC50: 0.72 µM
[3]
  selectivity ratio: 69
[1]
  CC50: 49.9 µM

## C=C1CC[C@H]2C(C)(C)CCC[C@]2(C)[C@H]1C/C=C1/C(=O)Nc2c(Br)cccc21
Chikungunya virus [2]
  EC50: 1.27 µM
[3]
  selectivity ratio: > 79
[1]
  CC50: > 100 µM

## C=C1CC[C@H]2C(C)(C)CCC[C@]2(C)[C@H]1C/C=C1\C(=O)Nc2ccc(F)cc21
Chikungunya virus [2]
  EC50: 6.62 µM
[3]
  selectivity ratio: 2.4
[1]
  CC50: 15.7 µM

## C=C1CC[C@H]2C(C)(C)CCC[C@]2(C)[C@H]1C/C=C1\C(=O)Nc2c(Cl)cccc21
Chikungunya virus [2]
  EC50: 10.5 µM
[3]
  selectivity ratio: 5.7
[1]
  CC50: 59.7 µM

## C=C1CC[C@H]2C(C)(C)CCC[C@]2(C)[C@H]1C/C=C1\C(=O)Nc2ccc(C(F)(F)F)cc21
Chikungunya virus [2]
  EC50: 2.63 µM
[3]
  selectivity ratio: > 6.1
[1]
  CC50: > 16.2 µM

## C=C1CC[C@H]2C(C)(C)CCC[C@]2(C)[C@H]1C/C=C1\C(=O)Nc2cccc(Cl)c21
Chikungunya virus [2]
  EC50: 5.4 µM
[3]
  selectivity ratio: 6.8
[1]
  CC50: 37.2 µM

## CC1=CC[C@H]2C(C)(C)CCC[C@]2(C)[C@H]1C/C=C1/C(=O)Nc2ccccc21
Chikungunya virus [2]
  EC50: 3.22 µM
[3]
  selectivity ratio: 5.8
[1]
  CC50: 18.6 µM

## C=C1CC[C@@H]2[C@](C)(CO)[C@H](O)CC[C@@]2(C)[C@@H]1C/C=C1/C(=O)N(C)c2ccccc21
[1]
  CC50: > 100 µM

## C=C1CC[C@H]2C(C)(C)CCC[C@]2(C)[C@H]1C/C=C1/C(=O)NC(=O)c2ccccc21
Chikungunya virus [2]
  EC50: 3.46 µM
[3]
  selectivity ratio: 15
[1]
  CC50: 50.5 µM

## C=C1CC[C@H]2C(C)(C)CCC[C@]2(C)[C@H]1C/C=C1\C(=O)Nc2cccc(Br)c21
Chikungunya virus [2]
  EC50: 0.44 µM
[3]
  selectivity ratio: 62
[1]
  CC50: 27.1 µM

## C=C1CC[C@H]2C(C)(C)CCC[C@]2(C)[C@H]1C/C=C1\C(=O)Nc2c(OC)cccc21
Chikungunya virus [2]
  EC50: 0.03 µM
[3]
  selectivity ratio: 780
[1]
  CC50: 23.4 µM
Chikungunya virus [4]
  Activity: 1.5

## C=C1CC[C@@H]2[C@](C)(CO)[C@H](O)CC[C@@]2(C)[C@@H]1C/C=C1\C(=O)Nc2ccccc21
Chikungunya virus [2]
  EC50: 5.85 µM
[3]
  selectivity ratio: > 17
[1]
  CC50: > 100 µM

## C=C1CC[C@H]2C(C)(C)CCC[C@]2(C)[C@H]1C/C=C1/C(=O)Nc2ccccc21
Chikungunya virus [2]
  EC50: 2.8 µM
[3]
  selectivity ratio: 15
[1]
  CC50: 41.6 µM

## CC1=CC[C@H]2C(C)(C)CCC[C@]2(C)[C@H]1C/C=C1\C(=O)Nc2c(Cl)cccc21
Chikungunya virus [2]
  EC50: 9.35 µM
[3]
  selectivity ratio: 21
[1]
  CC50: 194 µM

## C=C1CC[C@H]2C(C)(C)CCC[C@]2(C)[C@H]1C/C=C1\C(=O)Nc2ccc(Cl)cc21
Chikungunya virus [2]
  EC50: 4.1 µM
[3]
  selectivity ratio: 4.5
[1]
  CC50: 18.3 µM

## C=C1CC[C@H]2C(C)(C)CCC[C@]2(C)[C@H]1C/C=C1/C(=O)Nc2ccc(Cl)cc21
Chikungunya virus [2]
  EC50: 1.3 µM
[3]
  selectivity ratio: 27
[1]
  CC50: 36.1 µM

## C=C1CC[C@H]2C(C)(C)CCC[C@]2(C)[C@H]1C/C=C1\C(=O)Nc2ccc(Br)cc21
Chikungunya virus [2]
  EC50: 1.8 µM
[3]
  selectivity ratio: 11
[1]
  CC50: 20.6 µM

## C=C1CC[C@H]2C(C)(C)CCC[C@]2(C)[C@H]1C/C=C1\C(=O)Nc2cc(Br)ccc21
Chikungunya virus [2]
  EC50: 7.5 µM
[3]
  selectivity ratio: 2.6
[1]
  CC50: 19.6 µM

## C=C1CC[C@@H]2[C@](C)(CO)[C@H](O)CC[C@@]2(C)[C@@H]1CCC1C(=O)Nc2ccccc21 (some centres undefined)
[1]
  CC50: > 100 µM

## C=C1[C@H](O)C[C@H]2C(C)(C)CCC[C@]2(C)[C@H]1C/C=C1\C(=O)Nc2ccccc21
Chikungunya virus [2]
  EC50: 1.41 µM
[3]
  selectivity ratio: 14
[1]
  CC50: 20 µM

## C=C1[C@H](O)C[C@H]2C(C)(C)CCC[C@]2(C)[C@H]1C/C=C1/C(=O)Nc2ccccc21
Chikungunya virus [2]
  EC50: 1.29 µM
[3]
  selectivity ratio: 12
[1]
  CC50: 15 µM

## CC1=CC[C@H]2C(C)(C)CCC[C@]2(C)[C@H]1C/C=C1\C(=O)Nc2ccccc21
Chikungunya virus [2]
  EC50: 5.69 µM
[3]
  selectivity ratio: 3
[1]
  CC50: 17 µM

## C=C1CC[C@@H]2[C@](C)(CO)[C@H](O)CC[C@@]2(C)[C@@H]1C/C=C1\C(=O)N(C(C)=O)c2ccccc21
[1]
  CC50: > 100 µM

## C=C1CC[C@H]2C(C)(C)CCC[C@]2(C)[C@H]1C/C=C1\C(=O)Nc2c1cccc2C(F)(F)F
Chikungunya virus [2]
  EC50: 8.77 µM
[3]
  selectivity ratio: > 11
[1]
  CC50: > 100 µM

## C=C1CC[C@H]2C(C)(C)CCC[C@]2(C)[C@H]1C/C=C1\C(=O)Nc2cc(F)ccc21
Chikungunya virus [2]
  EC50: 0.21 µM
[3]
  selectivity ratio: 67
[1]
  CC50: 14.2 µM

## C=C1CC[C@H]2C(C)(C)CCC[C@]2(C)[C@H]1C/C=C1/C(=O)Nc2cc(Br)ccc21
[1]
  CC50: 8.3 µM

## C=C1CC[C@@H]2[C@](C)(CO)[C@H](O)CC[C@@]2(C)[C@@H]1C/C=C1\SC(=S)NC1=O
[1]
  CC50: > 100 µM

## C=C1CC[C@H]2C(C)(C)CCC[C@]2(C)[C@H]1C/C=C1\C(=O)Nc2cc(C(F)(F)F)ccc21
Chikungunya virus [2]
  EC50: 3.07 µM
[3]
  selectivity ratio: 17
[1]
  CC50: 52.8 µM

## C=C1CC[C@H]2C(C)(C)CCC[C@]2(C)[C@H]1C/C=C1/C(=O)Nc2ccc(Br)cc21
Chikungunya virus [2]
  EC50: 7.4 µM
[3]
  selectivity ratio: 10
[1]
  CC50: 77.2 µM

## C=C1CC[C@H]2C(C)(C)CCC[C@]2(C)[C@H]1C/C=C1/C(=O)Nc2cc(C(F)(F)F)ccc21
Chikungunya virus [2]
  EC50: 7.41 µM
[3]
  selectivity ratio: 10
[1]
  CC50: 77.2 µM

## C=C1CC[C@H]2C(C)(C)CCC[C@]2(C)[C@H]1C/C=C1/C(=O)Nc2ccc(C(F)(F)F)cc21
[1]
  CC50: 6.66 µM

## C=C1CC[C@H]2C(C)(C)CCC[C@]2(C)[C@H]1C/C=C1/C(=O)Nc2cc(F)ccc21
Chikungunya virus [2]
  EC50: 0.46 µM
[3]
  selectivity ratio: 20
[1]
  CC50: 9 µM

## C=C1CC[C@H]2C(C)(C)CCC[C@]2(C)[C@H]1C/C=C1/C(=O)Nc2c1cccc2C(F)(F)F
Chikungunya virus [2]
  EC50: 1.64 µM
[3]
  selectivity ratio: > 61
[1]
  CC50: > 100 µM

## C=C1CC[C@H]2C(C)(C)CCC[C@]2(C)[C@H]1C/C=C1\C(=O)Nc2cc(C)ccc21
Chikungunya virus [2]
  EC50: 11.6 µM
[3]
  selectivity ratio: 3.2
[1]
  CC50: 37.2 µM

## C=C1CC[C@H]2C(C)(C)CCC[C@]2(C)[C@H]1C/C=C1\C(=O)Nc2ccccc21
Chikungunya virus [2]
  EC50: 7.23 µM
[3]
  selectivity ratio: > 14
[1]
  CC50: > 100 µM

## C=C1CC[C@H]2C(C)(C)CCC[C@]2(C)[C@H]1C/C=C1/C(=O)Nc2ccc(C)cc21
Chikungunya virus [2]
  EC50: 0.02 µM
[3]
  selectivity ratio: 758
[1]
  CC50: 15.2 µM
Chikungunya virus [4]
  Activity: 3.7

## C=C1[C@H](O)C[C@H]2C(C)(C)CCC[C@]2(C)[C@H]1C/C=C1\C(=O)Nc2c(Cl)cccc21
Chikungunya virus [2]
  EC50: 0.002 µM
[3]
  selectivity ratio: 6700
[1]
  CC50: 13.4 µM
Chikungunya virus [4]
  Activity: 2.1

## C=C1CC[C@H]2C(C)(C)CCC[C@]2(C)[C@H]1C/C=C1\C(=O)Nc2c(F)cccc21
Chikungunya virus [2]
  EC50: 0.08 µM
[3]
  selectivity ratio: 336
[1]
  CC50: 26.9 µM
Chikungunya virus [4]
  Activity: 2

## C=C1CC[C@H]2C(C)(C)CCC[C@]2(C)[C@H]1C/C=C1/C(=O)Nc2cc(Cl)ccc21
[1]
  CC50: 5.7 µM

## C=C1CC[C@@H]2[C@](C)(COC(C)=O)[C@H](OC(C)=O)CC[C@@]2(C)[C@@H]1C/C=C1/C(=O)Nc2ccccc21
Chikungunya virus [2]
  EC50: 7.4 µM
[3]
  selectivity ratio: > 14
[1]
  CC50: > 100 µM

## C=C1CC[C@@H]2[C@](C)(CO)[C@H](O)CC[C@@]2(C)[C@@H]1C/C=C1\C(=O)N(C)c2ccccc21
[1]
  CC50: > 100 µM

## CC1=CC[C@H]2C(C)(C)CCC[C@]2(C)[C@H]1C/C=C1/C(=O)Nc2c(Cl)cccc21
Chikungunya virus [2]
  EC50: 6.56 µM
[3]
  selectivity ratio: 1.5
[1]
  CC50: > 100 µM

## C=C1CC[C@@H]2[C@](C)(COC(C)=O)[C@H](OC(C)=O)CC[C@@]2(C)[C@@H]1C/C=C1\C(=O)Nc2ccccc21
Chikungunya virus [2]
  EC50: 8.3 µM
[3]
  selectivity ratio: > 12
[1]
  CC50: > 100 µM
